From ChEMBL document CHEMBL3525902, “In vitro metabolism of oxymetazoline: evidence for bioactivation to a reactive metabolite” (Drug Metab Dispos, 2011)

Columns and labels:
[1] = test system: Liver; assay: Drug level in NADPH supplemented human liver S9 fraction treated with 50 uM oxymetazoline assessed as compound formation after 1 hr by LC-MS/MS method; assay type: ADME, subcellular; settings: s9, 1 h
[2] = test system: Liver; assay: Drug level in NADPH supplemented rat liver S9 fraction treated with 50 uM oxymetazoline assessed as compound formation after 1 hr by LC-MS/MS method; assay type: ADME, subcellular; settings: s9, 1 h
[3] = Drug level in NADPH supplemented rabbit liver S9 fraction treated with 50 uM oxymetazoline assessed as compound formation after 1 hr by LC-MS/MS method; assay type: ADME, subcellular, Oryctolagus cuniculus; settings: s9, 1 h
[4] = Retention time of the compound at 50 uM by LC-MS/MS method; assay type: physicochemical
[5] = Drug level in NADPH supplemented human liver S9 fraction treated with 50 uM oxymetazoline assessed as compound-glutathione conjugate formation in presence of glutathione by LC-MS/MS method; assay type: ADME, subcellular
[6] = Drug level in NADPH supplemented rabbit liver microsomes fraction treated with 50 uM oxymetazoline assessed as compound formation after 1 hr by LC-MS/MS method; assay type: ADME, Oryctolagus cuniculus
[7] = test system: Liver microsome; assay: Drug level in NADPH supplemented rat liver microsomes fraction treated with 50 uM oxymetazoline assessed as compound formation after 1 hr by LC-MS/MS method; assay type: ADME
[8] = test system: Liver microsome; assay: Drug level in NADPH supplemented human liver microsomes fraction treated with 50 uM oxymetazoline assessed as compound formation after 1 hr by LC-MS/MS method; assay type: ADME
[9] = Drug level in NADPH supplemented rat liver S9 fraction treated with 50 uM oxymetazoline assessed as compound-glutathione conjugate formation in presence of glutathione by LC-MS/MS method; assay type: ADME, subcellular
[10] = Drug level in NADPH supplemented rabbit liver S9 fraction treated with 50 uM oxymetazoline assessed as compound-glutathione conjugate formation in presence of glutathione by LC-MS/MS method; assay type: ADME, subcellular, Oryctolagus cuniculus
[11] = target: T1, Cytochrome P450 2C19 (Homo sapiens, UniProt P33261); assay: Activity of human recombinant CYP2C19 assessed as compound formation from 50 uM oxymetazoline in presence of NADPH by LC-MS/MS method; assay type: ADME; settings: recombinant enzyme
T1 sequence (P33261 whole entry): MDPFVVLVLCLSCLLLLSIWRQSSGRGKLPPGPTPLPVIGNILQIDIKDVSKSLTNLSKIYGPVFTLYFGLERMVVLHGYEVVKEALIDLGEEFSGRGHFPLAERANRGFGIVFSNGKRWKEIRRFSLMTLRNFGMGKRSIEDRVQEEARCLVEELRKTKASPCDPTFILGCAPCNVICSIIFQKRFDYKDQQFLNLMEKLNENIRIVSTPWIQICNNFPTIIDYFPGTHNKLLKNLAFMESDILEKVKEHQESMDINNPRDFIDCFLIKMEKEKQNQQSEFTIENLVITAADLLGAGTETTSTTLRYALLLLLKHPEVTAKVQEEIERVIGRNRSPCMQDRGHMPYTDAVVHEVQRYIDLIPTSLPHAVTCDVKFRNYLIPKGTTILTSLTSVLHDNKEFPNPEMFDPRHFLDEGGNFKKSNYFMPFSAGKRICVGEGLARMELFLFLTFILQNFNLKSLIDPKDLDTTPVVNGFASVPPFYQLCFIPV

[12] = Drug level in NADPH supplemented rabbit liver S9 fraction treated with 50 uM oxymetazoline assessed as compound-N-acetyl cysteine conjugate formation in presence of N-acetyl cysteine by LC-MS/MS method; assay type: ADME, subcellular, Oryctolagus cuniculus
[13] = target: T1, Cytochrome P450 2C19; assay: Activity of human recombinant CYP2C19 assessed as compound formation from 50 uM oxymetazoline in presence of NADPH and glutathione by LC-MS/MS method; assay type: ADME; settings: recombinant enzyme

| Structure (SMILES) | Drug metabolism [1] | Drug metabolism [2] | Drug metabolism [3] | Retention_time [4] [min] | Drug metabolism [5] | Drug metabolism [6] | Drug metabolism [7] | Drug metabolism [8] | Drug metabolism [9] | Drug metabolism [10] | Drug metabolism [11] | Drug metabolism [12] | Drug metabolism [13] |
| --- | --- | --- | --- | --- | --- | --- | --- | --- | --- | --- | --- | --- | --- |
| Cc1cc(C(C)(C)CO)c(O)c(C)c1CC1=NCCN1 | metabolite_detected | metabolite_detected | metabolite_detected | 4.95 | metabolite_detected | metabolite_detected | metabolite_detected | metabolite_detected | metabolite_detected | metabolite_detected | metabolite_detected | – | – |
| Cc1cc(C(C)(C)C)c(O)c(C)c1Cc1ncc[nH]1 | metabolite_detected | metabolite_detected | metabolite_detected | 12.36 | – | metabolite_detected | metabolite_detected | metabolite_detected | – | – | metabolite_detected | metabolite_detected | – |
| Cc1cc(C(C)(C)CO)c(O)c(C)c1Cc1ncc[nH]1 | metabolite_detected | metabolite_detected | metabolite_detected | 5.64 | metabolite_detected | metabolite_detected | metabolite_detected | metabolite_detected | metabolite_detected | metabolite_detected | metabolite_detected | – | – |
| CC(=O)N[C@@H](CSCc1cc(C(C)(C)C)c(O)c(C)c1CC1=NCCN1)C(=O)O | – | – | – | – | – | – | – | – | – | – | – | metabolite_detected | – |
| Cc1c(O)c(C(C)(C)C)cc(CSC[C@H](NC(=O)CC[C@H](N)C(=O)O)C(=O)NCC(=O)O)c1CC1=NCCN1 | metabolite_detected | metabolite_detected | metabolite_detected | 4.22 | metabolite_detected | – | – | – | metabolite_detected | metabolite_detected | – | – | metabolite_detected |
| Cc1c(O)c(C(C)(C)C)cc(CSC[C@H](NC(=O)CC[C@H](N)C(=O)O)C(=O)NCC(=O)O)c1Cc1ncc[nH]1 | metabolite_detected | metabolite_detected | metabolite_detected | 4.65 | metabolite_detected | – | – | – | metabolite_detected | metabolite_detected | – | – | metabolite_detected |
| Cc1c(O)c(C(C)(C)C)cc(CSC[C@H](N)C(=O)O)c1CC1=NCCN1 | metabolite_detected | – | metabolite_detected | 3.17 | – | – | – | – | – | – | – | – | – |
| Cc1c(O)c(C(C)(C)C)cc(CSC[C@H](N)C(=O)O)c1Cc1ncc[nH]1 | – | – | metabolite_detected | 3.48 | – | – | – | – | – | – | – | – | – |
| Cc1c(O)c(C(C)(C)CO)cc(CSC[C@H](NC(=O)CC[C@H](N)C(=O)O)C(=O)NCC(=O)O)c1CC1=NCCN1 | – | – | metabolite_detected | 3.86 | – | – | – | – | – | – | – | – | – |
| Cc1c(O)c(C(C)(C)CO)cc(CSC[C@H](NC(=O)CC[C@H](N)C(=O)O)C(=O)NCC(=O)O)c1Cc1ncc[nH]1 | – | – | metabolite_detected | 6.34 | – | – | – | – | – | – | – | – | – |
